Test results published in patent US20220144812A1, “QUINOLINE DERIVATIVES AND THEIR USE FOR THE TREATMENT OF CANCER” (Epizyme, Inc., priority 2019, published 2022).
Like-named read-outs stand apart in the source and are kept apart here.

How the values were obtained:
[1] = tested on: 647V cells; experiment: High throughput proliferation (HTP) assay; type: cell-based; settings: Homo sapiens, 647-V, read-out: CREBBP HTP IC50
Text: The following example describes methods and materials relating to a high throughput proliferation (HTP) assay. IC50 values (micromolar) are summarized in Table 1, Table 2, and Table 3 under the column labeled: “CREBBP HTP IC50 (micromolar).”
MATERIALS: 647V cell line, Dulbecco's MEM, penicillin-streptomycin, heat inactivated fetal bovine serum, D-PBS, and CellTiter-Glo were commercially available.
647V adherent cells were maintained in complete growth medium (Dulbecco's MEM supplemented with 15% v/v heat inactivated fetal bovine serum) and cultured at 37° C. under 5% CO2.
METHOD: Measurement of the effect of compound in High Throughput Proliferation (HTP) assays was performed as follows: Exponentially growing 647V cells were plated, in triplicate, in 384-well plates at the appropriate cell density in a final volume of 50 μl. Cells were incubated in the presence of increasing concentrations of compound. Viable cell number was determined at day 7 by addition of 35 μl CellTiter-Glo to each well of the plate, incubated in the dark for 30 minutes, and read on a PerkinElmer EnVision instrument to enumerate the number of cells.

[2] = tested on: H3K18Ac in HB-CLS-2 cells; experiment: H3K18AC in-cell western (ICW) assay; type: cell-based; settings: read-out: CREBBP ICW IC50
Text: The following example describes methods and materials relating to an H3K18AC in-cell western assay. IC50 values (micromolar (μM)) are summarized in Table 1, Table 2, and Table 3 under the column labeled: “CREBBP ICW IC50 (micromolar).”
MATERIALS: HB-CLS-2 cell line, DMEM: Ham's F12 medium (1:1 mixture), penicillin-streptomycin, heat inactivated fetal bovine serum, D-PBS, Odyssey blocking buffer, 800CW goat anti-rabbit IgG (H+L) antibody, Licor Odyssey CLx Infrared Scanner, H3K18Ac rabbit monoclonal antibody. DRAQS fluorescent probe solution (5 mM), and 100% methanol were commercially available. HB-CLS-2 adherent cells were maintained in complete growth medium (DMEM: Ham's F12 supplemented with 10% v/v heat inactivated fetal bovine serum) and cultured at 37° C. under 5% CO2.
METHOD: Cell Treatment, ICW for detection of H3K18Ac and DNA content. HB-CLS-2 cells were seeded in assay medium (DMEM: Ham's F12 supplemented with 10% v/v heat inactivated fetal bovine serum and 1% Penicillin/Streptomycin) at a concentration of 80,000 cells per mL in a Poly-D-Lysine coated 384-well culture plates at 50 μL per well. Plates were incubated at room temperature for 30 minutes and then incubated at 37° C., 5% CO2 for additional 16-24 hours. Compounds and DMSO normalization were then added directly to the plates using a D300 Digital Dispenser and returned to the incubator at 37° C., 5% CO2 for 2 hrs. After the incubation, the contents of the plates were discarded into the appropriate waste stream and blotted on laboratory tissue to remove residual liquid. 90 μL per well of 100% ice cold methanol was added to the plates and incubated at room temperature for 15 minutes. Then methanol was then discarded into the appropriate waste stream and the plates again blotted on laboratory tissue to remove residual liquid. Plates were transferred to a Biotek 405 plate washer and washed 3 times with 100 μL per well of wash buffer (1X PBS containing 0.1% Triton X-100 (v/v)). Next, 50 μL per well of Odyssey blocking buffer with 0.1% Tween 20 (v/v) was added to each plate and incubated for 1 hour at room temperature. Blocking buffer was removed and 20 μL of primary antibody were added (α-H3K18Ac diluted 1:800 in Odyssey buffer with 0.1% Tween 20 (v/v)) and plates were incubated overnight (16 hours) at 4° C. Plates were washed 5 times with 100 μL per well of wash buffer. Next 20 μL per well of secondary antibody was added (1:400 800CW goat anti-rabbit IgG (H+L) antibody, 1:2000 DRAQ5 in Odyssey buffer with 0.1% Tween 20 (v/v)) and incubated for 1 hour at room temperature. The plates were washed 3 times with 100 μL per well wash buffer then 3 times with 100 μL per well of water. Plates were allowed to dry at room temperature then imaged on the Licor Odyssey CLx machine which measured integrated intensity at 700 nm and 800 nm wavelengths. Both 700 and 800 channels were scanned.

[3] = target: T1, CREBBP (1084-1701) (Homo sapiens, UniProt Q92793); experiment: Biochemical assay for CREBBP (1084-1701), SAMDI; settings: SAMDI, read-out: CREBBP Biochemistry IC50
T1 construct: measured in the following biochemical assay using CREBBP (1084-1701); purchased
Text: The following example describes materials and methods relating to a biochemical assay for CREBBP (1084-1701). IC50 values (micromolar (μM)) are summarized in Table 1, Table 2, and Table 3 under the column labeled: “CREBBP Biochemistry IC50 (micromolar).”
MATERIALS: Reagents 1M Tris pH 8.0, Tween 20 10%, DTT, bovine serum gelatin (BSG) 2%, Peptide #233 (biotin-H3 11-25, K14R, K23R), Acetyl-CoA, CREBBP (1084-1701), formic acid (100%), and sodium bicarbonate were commercially available.
METHODS: The effect of compounds was measured in the following biochemical assay using CREBBP (1084-1701). Enzyme mix 30 μL per well was added using a Multi-drop to wells of prepared Compound Stock plate. The enzyme was incubated in the Compound Stock plate for 30 minutes at room temperature. Substrate mix, 20 μL per well, was added to Compound Stock plate using a Multi-drop. The plate was covered and incubate 30 minutes at room temperature. The reaction was stopped with addition of 5 μL per well of 5% formic acid using a Multi-drop. The plate was Incubated for 30 minutes at room temperature. The reaction mixture was neutralized with addition of 5 μL per well of 10% sodium bicarbonate using a Multi-drop. The plate was Incubated for 35 minutes at room temperature. The reaction mixture was Transferred 2.5 μL per well to a SAMDI biochip. The plate was Incubated for 60 minutes at room temperature. The samples were washed, dried, and matrix applied to SAMDI biochip. The SAMDI biochip was then read on the mass spectrometer.

[4] = high throughput proliferation, 647V cells
[5] = H3K18Ac in-cell western, HB-CLS-2 cells

T1 sequence (Q92793 1084-1701): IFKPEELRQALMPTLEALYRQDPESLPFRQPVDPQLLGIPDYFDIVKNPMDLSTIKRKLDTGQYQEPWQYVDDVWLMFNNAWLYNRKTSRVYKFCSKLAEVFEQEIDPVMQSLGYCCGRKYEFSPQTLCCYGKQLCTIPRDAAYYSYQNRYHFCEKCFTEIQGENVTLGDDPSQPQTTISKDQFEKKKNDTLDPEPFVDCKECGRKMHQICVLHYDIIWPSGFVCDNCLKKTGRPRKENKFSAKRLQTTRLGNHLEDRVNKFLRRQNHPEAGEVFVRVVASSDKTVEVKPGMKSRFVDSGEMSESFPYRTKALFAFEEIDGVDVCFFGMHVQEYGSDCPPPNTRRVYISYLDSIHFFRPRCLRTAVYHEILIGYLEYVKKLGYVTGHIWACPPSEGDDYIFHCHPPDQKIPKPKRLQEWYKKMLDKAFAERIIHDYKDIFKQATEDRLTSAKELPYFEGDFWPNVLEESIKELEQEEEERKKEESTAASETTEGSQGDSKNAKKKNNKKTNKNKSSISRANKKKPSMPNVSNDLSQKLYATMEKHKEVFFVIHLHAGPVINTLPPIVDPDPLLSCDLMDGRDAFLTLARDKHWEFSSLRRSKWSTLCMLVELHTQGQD

Row | Compound | IC50 [2, 5] | IC50 [3] | other results
1 | CCn1ncc(CN(C)C(=O)c2cc(-c3ccc(NCC(O)CN(C)C)c(C)n3)nc3ccc(COC)cc23)c1C (stereo not drawn) [Compound 643] | – | – | IC50 ([1]; 168 h, 647V cells, day 7, CellTiter-Glo): 0.233 µM; IC50 ([2]; 2 h, H3K18Ac in HB-CLS-2 cells, 2 hrs compound incubation): 0.327 µM
2 | CCn1ncc(CN(C)C(=O)c2nc(-c3cn(CCN(C)C(=O)OC(C)(C)C)cn3)nc3ccc(Cl)cc23)c1C [Compound 240] | 20 µM | – | IC50 [1, 4]: 20 µM
3 | CCn1ncc(CN(C)C(=O)c2nc(-c3cc(Cl)cc(OCCCN(C)C(=O)OC(C)(C)C)c3)nc3ccc(Cl)cc23)c1C [Compound 233] | 20 µM | – | IC50 [1, 4]: 20 µM
4 | CCn1ncc(CN(C)C(=O)c2nc(-n3ncc4c3CN(C(=O)OC(C)(C)C)CC4)nc3ccc(Cl)cc23)c1C [Compound 192] | – | – | IC50 ([1]; high throughput proliferation): 9.4 µM; IC50 ([2]; H3K18Ac in-cell western): 20 µM
5 | CCn1ncc(CN(C)C(=O)c2nc(Cc3ccccc3)nc3ccc(Cl)cc23)c1C [Compound 225] | 20 µM | 96000 nM | –
6 | CCn1ncc(CN(C)C(=O)c2cc(-c3cn(CCCNC(=O)OC(C)(C)C)cn3)nc3ccc(Cl)cc23)c1C [Compound 243] | 20 µM | 99000 nM | –
7 | CCn1ncc(CN(C)C(=O)c2nc(-c3ccccc3OC)nc3ccc(Cl)cc23)c1C [Compound 281] | 1.3 µM | 830 nM | –
8 | Cc1c(CN(C)C(=O)c2nc(-c3ccccc3Cl)nc3ccc(Cl)cc23)cnn1C(C)C [Compound 279] | 0.76 µM | 82 nM | –
9 | CCn1ncc(CN(C)C(=O)c2nc(-c3cncn3C)nc3ccc(Cl)cc23)c1C [Compound 363] | 7.4 µM | 9200 nM | –
10 | CCn1ncc(CN(C)C(=O)c2nc(-c3cc(Cl)ccc3Cl)nc3ccc(Cl)cc23)c1C [Compound 297] | 3.2 µM | 1800 nM | –
11 | Cc1c(CN(C)C(=O)c2nc(-c3ccccc3Cl)nc3ccc(Cl)cc23)cnn1C1CC1 [Compound 285] | 2.7 µM | 4200 nM | –
12 | CCn1ncc(CN(C)C(=O)c2nc(-c3ccccc3C)nc3ccc(Cl)cc23)c1C [Compound 362] | 1.2 µM | 710 nM | –
13 | CCn1ncc(CN(C)C(=O)c2cc(-c3ccccc3Cl)nc3ccc(Cl)cc23)c1C [Compound 95] | – | 250 nM | IC50 ([2]; H3K18Ac in-cell western): 1.8 µM
14 | CCn1ncc(CN(C)C(=O)c2nc(-c3cccc(C)c3)nc3ccc(Cl)cc23)c1C [Compound 317] | 1.5 µM | 230 nM | –
15 | CCn1ncc(CN(C)C(=O)c2nc(-c3cccc(Cl)c3Cl)nc3ccc(Cl)cc23)c1C [Compound 259] | 0.18 µM | 2.6 nM | –
16 | CCn1ncc(CN(C)C(=O)c2nc(-c3cnn(CCCO)c3)nc3ccc(Cl)cc23)c1C [Compound 212] | 20 µM | 96000 nM | –
17 | CCc1ccc2nc(-c3cccc(Cl)c3)nc(C(=O)N(C)Cc3cnn(CC)c3C)c2c1 [Compound 361] | 0.48 µM | 2.8 nM | –
18 | CCn1ncc(CN(CCO)C(=O)c2nc(-c3cccc(Cl)c3)nc3ccc(Cl)cc23)c1C [Compound 346] | 1.3 µM | 420 nM | –

Second part, led by results:

Row | IC50 [2, 5] | IC50 [3] | Compound | other results
19 | 20 µM | – | CCn1ncc(CN(C)C(=O)c2nc(-c3ccc(OCCNC)cn3)nc3ccc(Cl)cc23)c1C [Compound 238] | IC50 [1, 4]: 20 µM
20 | 20 µM | – | CCn1ncc(CN(C)C(=O)c2nc(-c3cn(CCCN(C)C(=O)OC(C)(C)C)cn3)nc3ccc(Cl)cc23)c1C [Compound 230] | IC50 [1, 4]: 20 µM
21 | 8.9 µM | 2500 nM | CCN(Cc1cnn(CC)c1C)C(=O)c1cc(-c2ccccc2Cl)nc2ccc(Cl)cc12 [Compound 302] | –
22 | 20 µM | 121000 nM | CCn1ncc(CN(C)C(=O)c2nc(-c3cnn(CCCNC)c3)nc3ccc(Cl)cc23)c1C [Compound 250] | –
23 | 2.3 µM | 630 nM | Cc1c(CN(C)C(=O)c2nc(-c3ccccc3Cl)nc3ccc(Cl)cc23)cnn1CC(F)(F)F [Compound 337] | –
24 | 1.2 µM | 690 nM | CCc1ncc(CN(C)C(=O)c2cc(-c3ccccc3Cl)nc3ccc(Cl)cc23)n1C [Compound 336] | –
25 | 13 µM | 16000 nM | CCn1ncc(CN(C)C(=O)c2nc(-c3cn[nH]c3)nc3ccc(Cl)cc23)c1C [Compound 358] | –
26 | 0.61 µM | 28 nM | Cc1c(CN(C)C(=O)c2nc(-c3cccc(Cl)c3)nc3ccc(Cl)cc23)cnn1C(C)C [Compound 299] | –
27 | 11 µM | 5500 nM | CCn1ncc(CN(C)C(=O)c2nc(-c3ccc(C)cc3)nc3ccc(Cl)cc23)c1C [Compound 282] | –
28 | 1.5 µM | 620 nM | CCn1ncc(CN(C)C(=O)c2nc(-c3ccccc3Cl)nc3ccc(COC)cc23)c1C [Compound 276] | –
29 | – | 6600 nM | CCn1ncc(CN(C)C(=O)c2cc(-c3ccccc3)nc3ccc(C)cc23)c1C [Compound 150] | IC50 ([2]; H3K18Ac in-cell western): 8.2 µM
30 | 17 µM | 9000 nM | CCn1ncc(CN(C)C(=O)c2cc(-c3cccc(Cl)c3)nc3ccc(NC)cc23)c1C [Compound 330] | –
31 | 1.7 µM | 350 nM | CCn1ncc(CN(C)C(=O)c2nc(-c3cccc(F)c3)nc3ccc(Cl)cc23)c1C [Compound 316] | –
32 | 1 µM | 400 nM | CCn1ncc(CN(C)C(=O)c2nc(-c3ccccc3Cl)nc3cc(C)c(Cl)cc23)c1C [Compound 359] | –
33 | 3.6 µM | 1700 nM | CCn1ncc(CN(C)C(=O)c2nc(-c3cccc(Cl)n3)nc3ccc(Cl)cc23)c1C [Compound 260] | –
34 | 18 µM | 9200 nM | CCc1ccc(-c2nc(C(=O)N(C)Cc3cnn(CC)c3C)c3cc(Cl)ccc3n2)cc1 [Compound 374] | –
35 | – | 3900 nM | CCn1ncc(CN(C)C(=O)c2cc(-c3ccccc3)nc3ccc(Cl)cc23)c1C [Compound 140] | IC50 ([2]; H3K18Ac in-cell western): 6.1 µM
36 | 1.5 µM | 530 nM | CCn1ncc(CN(C)C(=O)c2nc(-c3ccccc3F)nc3ccc(Cl)cc23)c1C [Compound 335] | –
